Measured values published in US11414379B2, “SPAK kinase inhibitors as neuroprotective agents” (United States Government as represented by the Department …, priority 2018, dated 2022).

Tests used:
Test in all cases: Kinase panel (Dundee profiling)
Format in all cases: biochemical
Conditions in all cases: read-out: % residual kinase activity
RIPK2 = RIPK2 (Homo sapiens, UniProt O43353)
Summary of the method: (§1)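 Each recombinant kinase of a 140-member panel was assayed radioisotopically in the presence of compound at 1 or 10 μM, and activity was expressed as percent remaining versus DMSO control (n=3, mean±SEM).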

CHK1 = CHK1 (Homo sapiens, UniProt O14757)
Summary of the method: as §1

PIM2 = PIM2 (Homo sapiens, UniProt Q9P1W9)
Summary of the method: as §1

PDK1 = PDK1 (Homo sapiens, UniProt O15530)
Summary of the method: as §1

S6K1 = S6K1 (Homo sapiens, UniProt P23443)
Summary of the method: as §1

MST2 = MST2 (Homo sapiens, UniProt Q13188)
Summary of the method: as §1

ERK2 = ERK2 (Homo sapiens, UniProt P28482)
Summary of the method: as §1

HER4 = HER4 (Homo sapiens, UniProt Q15303)
Summary of the method: as §1

CK1δ = CK1δ (Homo sapiens, UniProt P48730)
CK1δ, sequence (P48730 whole entry): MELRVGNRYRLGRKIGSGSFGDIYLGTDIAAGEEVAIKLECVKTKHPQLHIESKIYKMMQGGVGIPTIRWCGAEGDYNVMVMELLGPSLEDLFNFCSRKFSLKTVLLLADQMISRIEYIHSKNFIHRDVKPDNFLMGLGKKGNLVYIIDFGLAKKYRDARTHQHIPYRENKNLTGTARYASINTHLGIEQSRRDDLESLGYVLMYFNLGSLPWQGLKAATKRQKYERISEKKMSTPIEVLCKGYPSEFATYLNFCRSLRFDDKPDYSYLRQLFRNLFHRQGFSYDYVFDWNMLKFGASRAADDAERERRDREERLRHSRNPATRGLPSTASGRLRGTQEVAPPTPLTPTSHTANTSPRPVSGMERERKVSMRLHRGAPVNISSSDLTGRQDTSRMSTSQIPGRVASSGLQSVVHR
Summary of the method: as §1

MPSK1 = MPSK1 (Homo sapiens, UniProt O75716)
Summary of the method: as §1

MLK3 = MLK3 (Homo sapiens, UniProt Q16584)
Summary of the method: as §1

SmMLCK = SmMLCK (Homo sapiens, UniProt Q15746)
Summary of the method: as §1

PRK2 = PRK2 (Homo sapiens, UniProt Q16513)
Summary of the method: as §1

MAP4K5 = MAP4K5 (Homo sapiens, UniProt Q9Y4K4)
Summary of the method: as §1

DAPK1 = DAPK1 (Homo sapiens, UniProt P53355)
Summary of the method: as §1

PINK = PINK (Tribolium castaneum, UniProt D6WMX4)
Summary of the method: as §1

JNK2 = JNK2 (Homo sapiens, UniProt P45984)
JNK2, sequence (P45984 whole entry, species assumed): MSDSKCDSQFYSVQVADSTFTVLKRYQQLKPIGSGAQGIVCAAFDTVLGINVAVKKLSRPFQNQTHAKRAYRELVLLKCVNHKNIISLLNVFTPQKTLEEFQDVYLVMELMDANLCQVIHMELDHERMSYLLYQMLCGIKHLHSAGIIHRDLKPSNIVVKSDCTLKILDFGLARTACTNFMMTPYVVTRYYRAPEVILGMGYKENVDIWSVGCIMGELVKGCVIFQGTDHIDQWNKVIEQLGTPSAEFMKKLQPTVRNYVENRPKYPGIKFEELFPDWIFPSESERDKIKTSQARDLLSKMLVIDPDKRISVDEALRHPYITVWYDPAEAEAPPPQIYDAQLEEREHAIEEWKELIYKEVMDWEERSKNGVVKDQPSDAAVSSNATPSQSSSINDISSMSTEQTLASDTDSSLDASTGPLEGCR
Summary of the method: as §1

PRAK = PRAK (Homo sapiens, UniProt Q8IW41)
Summary of the method: as §1

ERK8 = ERK8 (Homo sapiens, UniProt Q8TD08)
ERK8, sequence (Q8TD08 whole entry, species assumed): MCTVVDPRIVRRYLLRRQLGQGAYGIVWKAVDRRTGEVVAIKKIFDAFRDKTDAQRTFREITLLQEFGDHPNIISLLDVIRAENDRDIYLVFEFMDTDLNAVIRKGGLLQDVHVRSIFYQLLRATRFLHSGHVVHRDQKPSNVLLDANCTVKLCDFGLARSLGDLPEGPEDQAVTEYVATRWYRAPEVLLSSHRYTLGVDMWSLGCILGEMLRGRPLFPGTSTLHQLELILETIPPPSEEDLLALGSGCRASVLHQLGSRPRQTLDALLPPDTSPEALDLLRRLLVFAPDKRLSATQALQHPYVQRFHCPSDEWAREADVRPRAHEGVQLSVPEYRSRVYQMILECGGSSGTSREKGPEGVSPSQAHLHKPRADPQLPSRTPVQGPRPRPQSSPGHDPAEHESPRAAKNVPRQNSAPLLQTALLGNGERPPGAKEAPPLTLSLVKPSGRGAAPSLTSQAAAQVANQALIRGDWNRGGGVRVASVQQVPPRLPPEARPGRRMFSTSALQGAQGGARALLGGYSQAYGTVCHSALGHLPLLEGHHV
Summary of the method: as §1

MNK1 = MNK1 (Homo sapiens, UniProt Q9BUB5)
MNK1, sequence (Q9BUB5 whole entry, species assumed): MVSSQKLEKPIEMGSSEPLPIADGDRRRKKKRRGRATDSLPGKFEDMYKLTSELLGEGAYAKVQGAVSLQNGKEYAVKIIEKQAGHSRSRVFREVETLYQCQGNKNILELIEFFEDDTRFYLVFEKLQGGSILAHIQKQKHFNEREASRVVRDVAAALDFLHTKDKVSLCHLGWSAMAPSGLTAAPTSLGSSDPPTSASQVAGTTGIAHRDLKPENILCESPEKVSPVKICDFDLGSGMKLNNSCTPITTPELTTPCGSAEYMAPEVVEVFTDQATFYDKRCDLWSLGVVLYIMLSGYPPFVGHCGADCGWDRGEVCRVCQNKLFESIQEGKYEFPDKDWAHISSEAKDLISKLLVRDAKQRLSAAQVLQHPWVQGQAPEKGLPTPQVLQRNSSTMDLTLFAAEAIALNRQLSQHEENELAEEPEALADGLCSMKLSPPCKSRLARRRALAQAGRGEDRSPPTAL
Summary of the method: as §1

CAMKKb = CAMKKb (Homo sapiens, UniProt Q96RR4)
Summary of the method: as §1

EPH-A4 = EPH-A4 (Homo sapiens, UniProt P54764)
Summary of the method: as §1

JAK2 = JAK2 (Homo sapiens, UniProt O60674)
Summary of the method: as §1

SIK3 = SIK3 (Homo sapiens, UniProt Q9Y2K2)
Summary of the method: as §1

EPH-B1 = EPH-B1 (Homo sapiens, UniProt P54762)
Summary of the method: as §1

TBK1 = TBK1 (Homo sapiens, UniProt Q9UHD2)
Summary of the method: as §1

NEK2a = NEK2a (Homo sapiens, UniProt P51955)
Summary of the method: as §1

MEKK1 = MEKK1 (Homo sapiens, UniProt Q13233)
MEKK1, sequence (Q13233 whole entry, species assumed): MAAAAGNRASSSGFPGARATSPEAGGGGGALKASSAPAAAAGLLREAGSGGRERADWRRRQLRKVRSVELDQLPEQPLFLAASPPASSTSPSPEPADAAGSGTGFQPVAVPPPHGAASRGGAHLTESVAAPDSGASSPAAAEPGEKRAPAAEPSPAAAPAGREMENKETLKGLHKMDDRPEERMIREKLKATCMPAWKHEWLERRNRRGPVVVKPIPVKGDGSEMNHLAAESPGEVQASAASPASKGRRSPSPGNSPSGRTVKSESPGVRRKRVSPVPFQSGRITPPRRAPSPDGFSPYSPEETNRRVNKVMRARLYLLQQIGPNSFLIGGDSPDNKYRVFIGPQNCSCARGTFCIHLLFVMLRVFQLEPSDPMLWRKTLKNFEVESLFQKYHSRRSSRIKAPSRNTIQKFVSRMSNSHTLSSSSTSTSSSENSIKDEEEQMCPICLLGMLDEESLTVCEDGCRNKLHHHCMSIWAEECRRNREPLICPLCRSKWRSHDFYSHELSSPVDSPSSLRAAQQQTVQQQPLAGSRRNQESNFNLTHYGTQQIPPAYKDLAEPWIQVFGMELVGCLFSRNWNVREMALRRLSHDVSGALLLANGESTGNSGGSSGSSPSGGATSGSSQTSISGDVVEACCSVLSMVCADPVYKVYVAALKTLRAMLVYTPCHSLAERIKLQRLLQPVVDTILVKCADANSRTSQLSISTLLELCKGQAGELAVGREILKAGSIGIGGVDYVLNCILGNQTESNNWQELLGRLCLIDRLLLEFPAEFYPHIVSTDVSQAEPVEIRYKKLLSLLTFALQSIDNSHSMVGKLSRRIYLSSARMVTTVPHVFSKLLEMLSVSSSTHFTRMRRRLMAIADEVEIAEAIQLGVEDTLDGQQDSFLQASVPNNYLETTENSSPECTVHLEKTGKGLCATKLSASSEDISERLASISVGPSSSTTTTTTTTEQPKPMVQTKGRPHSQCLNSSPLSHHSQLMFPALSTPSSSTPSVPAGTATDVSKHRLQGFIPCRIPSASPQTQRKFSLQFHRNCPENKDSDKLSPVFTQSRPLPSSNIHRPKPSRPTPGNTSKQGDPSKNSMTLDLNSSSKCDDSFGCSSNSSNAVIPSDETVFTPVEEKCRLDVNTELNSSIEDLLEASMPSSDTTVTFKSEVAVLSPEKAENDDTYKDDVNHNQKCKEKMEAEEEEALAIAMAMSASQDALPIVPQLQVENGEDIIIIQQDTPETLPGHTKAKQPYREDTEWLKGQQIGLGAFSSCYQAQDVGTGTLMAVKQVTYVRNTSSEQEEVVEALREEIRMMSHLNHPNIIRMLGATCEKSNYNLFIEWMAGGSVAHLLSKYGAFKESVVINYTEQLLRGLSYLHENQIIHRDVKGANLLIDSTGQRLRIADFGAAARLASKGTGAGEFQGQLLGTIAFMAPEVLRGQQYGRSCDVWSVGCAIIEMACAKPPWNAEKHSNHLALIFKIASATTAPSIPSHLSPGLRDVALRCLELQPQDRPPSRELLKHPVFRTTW
Summary of the method: as §1

PKCa = PKCa (Homo sapiens, UniProt P17252)
Summary of the method: as §1

OSR1 = OSR1 (Homo sapiens, UniProt O95747)
Summary of the method: as §1

PKD1 = PKD1 (Homo sapiens, UniProt Q15139)
PKD1, sequence (Q15139 whole entry): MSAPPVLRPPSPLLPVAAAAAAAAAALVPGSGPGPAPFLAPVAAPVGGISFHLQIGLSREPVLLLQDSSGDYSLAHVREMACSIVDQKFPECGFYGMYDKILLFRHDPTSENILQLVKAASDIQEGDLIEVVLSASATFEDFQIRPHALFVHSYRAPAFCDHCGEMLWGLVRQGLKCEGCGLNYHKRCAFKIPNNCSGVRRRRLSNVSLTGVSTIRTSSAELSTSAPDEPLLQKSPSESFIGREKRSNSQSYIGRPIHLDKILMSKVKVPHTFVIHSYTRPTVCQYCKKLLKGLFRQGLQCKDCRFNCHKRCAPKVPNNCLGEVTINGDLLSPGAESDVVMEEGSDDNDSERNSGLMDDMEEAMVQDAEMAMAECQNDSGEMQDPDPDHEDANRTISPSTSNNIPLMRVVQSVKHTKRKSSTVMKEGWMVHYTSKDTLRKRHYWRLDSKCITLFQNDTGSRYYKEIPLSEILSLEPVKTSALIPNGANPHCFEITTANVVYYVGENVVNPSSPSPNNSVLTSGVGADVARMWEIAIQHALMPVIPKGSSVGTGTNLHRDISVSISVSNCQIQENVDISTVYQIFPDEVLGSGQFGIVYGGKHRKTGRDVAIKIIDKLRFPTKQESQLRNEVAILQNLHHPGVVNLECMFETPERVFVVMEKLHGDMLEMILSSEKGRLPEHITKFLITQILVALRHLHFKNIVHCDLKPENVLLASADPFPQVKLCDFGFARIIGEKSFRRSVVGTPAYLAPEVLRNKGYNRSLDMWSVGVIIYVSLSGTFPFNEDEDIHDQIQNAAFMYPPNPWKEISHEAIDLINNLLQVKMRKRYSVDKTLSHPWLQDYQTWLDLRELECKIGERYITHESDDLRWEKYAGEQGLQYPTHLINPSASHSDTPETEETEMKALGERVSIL
Summary of the method: as §1

IRAK4 = IRAK4 (Homo sapiens, UniProt Q9NWZ3)
Summary of the method: as §1

RIPK2, sequence (O43353 whole entry, species assumed): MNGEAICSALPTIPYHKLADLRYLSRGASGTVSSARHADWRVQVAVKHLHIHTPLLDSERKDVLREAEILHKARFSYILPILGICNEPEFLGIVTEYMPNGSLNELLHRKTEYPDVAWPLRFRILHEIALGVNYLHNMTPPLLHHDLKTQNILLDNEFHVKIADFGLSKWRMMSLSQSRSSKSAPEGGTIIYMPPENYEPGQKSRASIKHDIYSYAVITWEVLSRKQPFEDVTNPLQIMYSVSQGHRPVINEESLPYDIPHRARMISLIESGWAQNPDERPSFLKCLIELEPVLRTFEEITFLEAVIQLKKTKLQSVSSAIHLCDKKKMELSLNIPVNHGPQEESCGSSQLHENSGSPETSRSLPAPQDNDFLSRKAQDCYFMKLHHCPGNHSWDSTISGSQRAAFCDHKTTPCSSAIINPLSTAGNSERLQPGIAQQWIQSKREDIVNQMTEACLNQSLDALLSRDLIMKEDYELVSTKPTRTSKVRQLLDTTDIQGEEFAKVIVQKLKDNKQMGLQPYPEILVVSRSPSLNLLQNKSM

Cc1cc(C(C#N)c2ccc(Cl)cc2)c(Cl)cc1NC(=O)c1cc(Cl)ccc1O (stereo not shown) [ZT-1a, 5-chloro-N-(5-chloro-4-((4-chlorophenyl)(cyano)methyl)-2-methylphenyl)-2-hydroxy-benzamide]
remaining activity at 1 µM (RIPK2; 1 μM): 128 ± 5%
remaining activity at 10 µM (RIPK2; 10 μM): 120 ± 3%
remaining activity at 1 µM (CHK1; 1 μM): 111 ± 11%
remaining activity at 10 µM (CHK1; 10 μM): 109 ± 8%
remaining activity at 1 µM (PIM2; 1 μM): 93 ± 5%
remaining activity at 10 µM (PIM2; 10 μM): 93 ± 3%
remaining activity at 1 µM (PDK1; 1 μM): 92 ± 6%
remaining activity at 10 µM (PDK1; 10 μM): 69 ± 17%
remaining activity at 1 µM (S6K1; 1 μM): 119 ± 10%
remaining activity at 10 µM (S6K1; 10 μM): 81 ± 2%
remaining activity at 1 µM (MST2; 1 μM): 115 ± 4%
remaining activity at 10 µM (MST2; 10 μM): 113 ± 2%
remaining activity at 1 µM (ERK2; 1 μM): 111 ± 25%
remaining activity at 10 µM (ERK2; 10 μM): 75 ± 3%
remaining activity at 1 µM (HER4; 1 μM): 85 ± 8%
remaining activity at 10 µM (HER4; 10 μM): 84 ± 1%
remaining activity at 1 µM (CK1δ; 1 μM): 116 ± 5%
remaining activity at 10 µM (CK1δ; 10 μM): 114 ± 9%
remaining activity at 1 µM (MPSK1; 1 μM): 110 ± 6%
remaining activity at 10 µM (MPSK1; 10 μM): 105 ± 2%
remaining activity at 1 µM (MLK3; 1 μM): 119 ± 11%
remaining activity at 10 µM (MLK3; 10 μM): 114 ± 3%
remaining activity at 1 µM (SmMLCK; 1 μM): 99 ± 3%
remaining activity at 10 µM (SmMLCK; 10 μM): 98 ± 9%
remaining activity at 1 µM (PRK2; 1 μM): 118 ± 4%
remaining activity at 10 µM (PRK2; 10 μM): 120 ± 7%
remaining activity at 1 µM (MAP4K5; 1 μM): 95 ± 28%
remaining activity at 10 µM (MAP4K5; 10 μM): 76 ± 9%
remaining activity at 1 µM (DAPK1; 1 μM): 131 ± 8%
remaining activity at 10 µM (DAPK1; 10 μM): 159 ± 11%
remaining activity at 1 µM (PINK; 1 μM): 101 ± 13%
remaining activity at 10 µM (PINK; 10 μM): 59 ± 4%
remaining activity at 1 µM (JNK2; 1 μM): 102 ± 2%
remaining activity at 10 µM (JNK2; 10 μM): 147 ± 51%
remaining activity at 1 µM (PRAK; 1 μM): 78 ± 13%
remaining activity at 10 µM (PRAK; 10 μM): 41 ± 7%
remaining activity at 1 µM (ERK8; 1 μM): 104 ± 11%
remaining activity at 10 µM (ERK8; 10 μM): 63 ± 3%
remaining activity at 1 µM (MNK1; 1 μM): 78 ± 19%
remaining activity at 10 µM (MNK1; 10 μM): 87 ± 2%
remaining activity at 1 µM (CAMKKb; 1 μM): 115 ± 10%
remaining activity at 10 µM (CAMKKb; 10 μM): 102 ± 9%
remaining activity at 1 µM (EPH-A4; 1 μM): 59 ± 33%
remaining activity at 10 µM (EPH-A4; 10 μM): 90 ± 11%
remaining activity at 1 µM (JAK2; 1 μM): 125 ± 6%
remaining activity at 10 µM (JAK2; 10 μM): 123 ± 8%
remaining activity at 1 µM (SIK3; 1 μM): 104 ± 9%
remaining activity at 10 µM (SIK3; 10 μM): 88%
remaining activity at 1 µM (EPH-B1; 1 μM): 77 ± 15%
remaining activity at 10 µM (EPH-B1; 10 μM): 80 ± 19%
remaining activity at 1 µM (TBK1; 1 μM): 119 ± 10%
remaining activity at 10 µM (TBK1; 10 μM): 94 ± 3%
remaining activity at 1 µM (NEK2a; 1 μM): 85 ± 12%
remaining activity at 10 µM (NEK2a; 10 μM): 91 ± 6%
remaining activity at 1 µM (MEKK1; 1 μM): 109 ± 1%
remaining activity at 10 µM (MEKK1; 10 μM): 93 ± 16%
remaining activity at 1 µM (PKCa; 1 μM): 97 ± 4%
remaining activity at 10 µM (PKCa; 10 μM): 83 ± 2%
remaining activity at 1 µM (OSR1; 1 μM): 106 ± 9%
remaining activity at 10 µM (OSR1; 10 μM): 98 ± 3%
remaining activity at 1 µM (PKD1; 1 μM): 89%
remaining activity at 10 µM (PKD1; 10 μM): 79 ± 10%
remaining activity at 1 µM (IRAK4; 1 μM): 127%
remaining activity at 10 µM (IRAK4; 10 μM): 127 ± 11%
